# Laboratory results: patent US11124540B2, “Polypeptides for the treatment of diseases” (Neopep Pharma GmbH & Co., KG, priority 2017, dated 2021)
# Test system: Pancreas carcinoma cells
# Assay: Cancer cell invasion assay on humanized rats with implanted pancreas carcinoma cells
# Assay type: in vivo
# Conditions: for Tumor response, 2 w after end of therapy: 2 weeks after end of therapy; for Tumor response, 1 w of therapy: after 1 week of therapy; for Tumor response, 2 w of therapy: after 2 weeks of therapy
# Procedure: The cancer cell invasion assay was performed on humanized rats (Eyol, E. et al., Oncology Reports, 28: 2177-2187, 2012). Pancreas carcinoma cells were implanted. The successful implant was observed by luminescent imaging as well as by an increase in CXCR4 expression.
# After a successful implant of carcinoma cells, the rats were treated with a peptide according to Seq ID No. 1 and Seq. ID No. 9 respectively. The results after 1 week of therapy (1 w of therapy), after 2 weeks of therapy (2 w of therapy) and 2 weeks after end of therapy are depicted in the below tables.
Sequence,"Tumor response, 2 w after end of therapy (amount of peptide 35 mg)","Tumor response, 2 w after end of therapy (amount of peptide 70 mg)","Tumor response, 1 w of therapy (amount of peptide 70 mg)","Tumor response, 2 w of therapy (amount of peptide 7 mg)","Tumor response, 2 w after end of therapy (amount of peptide 10 mg)","Tumor response, 1 w of therapy (amount of peptide 10 mg)","Tumor response, 2 w of therapy (amount of peptide 10 mg)","Tumor response, 2 w after end of therapy (amount of peptide 20 mg)","Tumor response, 1 w of therapy (amount of peptide 20 mg)","Tumor response, 2 w of therapy (amount of peptide 70 mg)"
"ILRWSRKMPQFS (human) [Seq ID No. 9, Ile Leu Arg Trp Ser Arg Lys Met Pro Gln Phe Ser]",Tumor growth,Tumor growth,Tumor growth,,,,,,,
"IVRWSKKVPQVS (human) [Seq ID No. 1, Ile Val Arg Trp Ser Lys Lys Val Pro Gln Val Ser]",,Complete Remission,No tumor growth,No tumor growth,Tumor growth,No tumor growth,Tumor growth,Complete Remission,No tumor growth,Remission
